Laboratory results as given in paper PMC6262321, “New Pim-1 Kinase Inhibitor From the Co-culture of Two Sponge-Associated Actinomycetes” (Frontiers in Chemistry, 2018).
Like-named read-outs stand apart in the source and are kept apart here.

Key:
Pim-1 kinase = biological target: T1, Pim-1 kinase (Homo sapiens, UniProt P11309); test: Pim-1 kinase assay (HTScan Kinase Assay); assay type: biochemical
T1 construct: purchased Cell Signaling Technology

[1] = system: human colon adenocarcinoma HT-29; test: MTT antiproliferative assay, HT-29; assay type: cell-based; details: mean of 3 independent experiments, read-out: Antiproliferative activity IC50 ± S.D., HT-29
[2] = system: lung adenocarcinoma H1650; test: MTT antiproliferative assay, H1650; assay type: cell-based; details: mean of 3 independent experiments, read-out: Antiproliferative activity IC50 ± S.D., H1650
Description: Cell proliferation was evaluated in cell lines by the MTT assay in triplicates. 10^4 cells were plated in a 96-well microtiter plate in a final volume of 100 μl of culture medium. Cells were treated for 24 h with test compound at 37 °C with 5% CO2. After treatment, the cells were immediately incubated with 10 μl MTT (5.0 mg/mL) for 4 h at 37°C. The cells were then lysed in 100 μl of lysis buffer (isopropanol, conc. HCl and Triton X-100) for 10 min at room temperature and 300 rpm/min shaking. The enzymatic reduction of MTT to formazan crystals that dissolved in DMSO was quantified by photometry at 570 nm. […] 5-Flurouracil was used as a positive control.

[3] = system: human promyelocytic leukemia HL-60; test: MTT antiproliferative assay, HL-60; assay type: cell-based; details: mean of 3 independent experiments, read-out: Antiproliferative activity IC50 ± S.D., HL-60 (head prints HL-6)
Pim-1 = system: Pim-1; design: method as in Nakano et al., 2012; details: ligand of PDB code 3umw; ref Nakano et al., 2012; read-out: Pim-1 IC50 of co-crystalized ligand; cited from earlier work
[4] = 50 ng Pim-1, 200 μM ATP, 1.5 μM biotinylated BAD Ser112 peptide, 30 min, mean of 3 independent experiments, read-out: In-vitro Pim-1 kinase inhibitory activity IC50 ± S.D.
[5] = Homo sapiens, HT-29, 24 h treatment
[6] = Homo sapiens, NCI-H1650, 24 h treatment
[7] = Homo sapiens, HL-60, 24 h treatment

T1 sequence (P11309 whole entry): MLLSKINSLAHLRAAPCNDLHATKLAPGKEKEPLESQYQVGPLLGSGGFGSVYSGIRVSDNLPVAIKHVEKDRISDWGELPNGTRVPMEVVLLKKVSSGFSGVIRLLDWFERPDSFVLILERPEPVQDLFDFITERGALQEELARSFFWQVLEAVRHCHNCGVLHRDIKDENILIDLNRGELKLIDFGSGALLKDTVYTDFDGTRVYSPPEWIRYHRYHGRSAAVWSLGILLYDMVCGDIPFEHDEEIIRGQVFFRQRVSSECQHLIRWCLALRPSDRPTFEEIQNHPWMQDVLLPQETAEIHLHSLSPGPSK

In the case of `Cc1c[nH]c2ccccc12` [Compound 9, skatole], the IC50 (Pim-1 kinase; [4]) is reported as > 20 µM, the IC50 [1, 5] is reported as > 100 µM and the IC50 [2, 6] is reported as > 100 µM. The IC50 [3, 7] was > 100 µM.
With `OCCc1c[nH]c2ccccc12` [Compound 7, tryptophol] the IC50 (Pim-1 kinase; [4]) was > 20 µM, the IC50 [1, 5] was > 100 µM and the IC50 [2, 6] was > 100 µM. The IC50 [3, 7] was > 100 µM.
In the case of `COc1ccc2c(c1CN1CCNCC1)OC(=Cc1n[nH]c3ccccc13)C2=O` [co-crystalized ligand], the IC50 (Pim-1) is listed as 0.003 µM.
For `O=C(O)c1cc(O)c2ccccc2c1O` [Compound 11, 1,4 dihydroxy-2-naphthoic acid], the IC50 (Pim-1 kinase; [4]) was > 20 µM, the IC50 [1, 5] was > 100 µM and the IC50 [2, 6] was > 100 µM. The IC50 [3, 7] was > 100 µM.
In the case of `O=Cc1c[nH]c2ccccc12` [Compound 6, indole-3-carbaldehyde], the IC50 (Pim-1 kinase; [4]) is reported as > 20 µM, the IC50 [1, 5] is reported as > 100 µM and the IC50 [2, 6] is reported as > 100 µM. The IC50 [3, 7] was > 100 µM.
In the case of `CC(=O)C[C@@]1(O)C(=O)Nc2cc(Br)ccc21` [Compound 2, (S) enantiomer of (R)-6-Bromo-3-hydroxy-3-(2 oxopropyl)indolin-2-one], the IC50 (Pim-1 kinase; [4]) is reported as > 20 µM, the IC50 [1, 5] is reported as > 100 µM and the IC50 [2, 6] is reported as > 100 µM. The IC50 [3, 7] was > 100 µM.
Work on `O=c1[nH]cc(F)c(=O)[nH]1` [5-Flurouracil, reference compound] yielded an IC50 ([1]; 24 h treatment) of 0.3 ± 0.35 µM, an IC50 ([2]; 24 h treatment) of 0.5 ± 0.67 µM and an IC50 ([3]; 24 h treatment) of 0.2 ± 0.43 µM.
With `O=C(O)C(=O)Cc1c[nH]c2ccccc12` [Compound 8, indole-3-pyruvic acid] the IC50 (Pim-1 kinase; [4]) was > 20 µM, the IC50 [1, 5] was > 100 µM and the IC50 [2, 6] was > 100 µM. For the same compound, the IC50 [3, 7] was > 100 µM.
In the case of `C[C@@H]1C[C@H]2CC[C@H](O2)[C@H](C)C(=O)O[C@@H](C)C[C@@H]2CC[C@@H](O2)[C@@H](C)C(=O)O[C@H](C)C[C@H]2CC[C@H](O2)[C@H](C)C(=O)O[C@@H](C)C[C@@H]2CC[C@@H](O2)[C@@H](C)C(=O)O1` [Compound 4, Nonactin], the IC50 (Pim-1 kinase) is reported as > 20 µM, the IC50 [1, 5] is reported as > 100 µM and the IC50 [2, 6] is reported as > 100 µM. The IC50 [3, 7] was > 100 µM.
For `CC(c1c[nH]c2ccccc12)c1c[nH]c2ccccc12` [Compound 5, vibrindole], the IC50 (Pim-1 kinase; [4]) was > 20 µM, the IC50 [1, 5] was > 100 µM and the IC50 [2, 6] was > 100 µM. For the same compound, the IC50 [3, 7] was > 100 µM.
In the case of `O=C(O)c1ccc2ccccc2c1O` [Compound 10, 1-hydroxy-2-naphthoic acid], the IC50 (Pim-1 kinase; [4]) is reported as > 20 µM, the IC50 [1, 5] is reported as > 100 µM and the IC50 [2, 6] is reported as > 100 µM. The IC50 [3, 7] was > 100 µM.
With `COc1ccc(/C=C/C(=N)/C=C2/C(=O)Nc3cc(Br)ccc32)cc1` [Compound 1, (E)-6-bromo-3-((E)-2-imino-4-(4-methoxyphenyl)but-3-en-1-ylidene)indolin-2-one] the IC50 [2, 6] was > 100 µM.
For `O=C1Nc2cc(Br)ccc2[C@@]1(O)c1c[nH]c2ccccc12` [Compound 3, (S) 6-bromo-3-hydroxy-3-(1H-indol-3-yl) indolin-2-one], the IC50 [2, 6] was > 100 µM.
